Measurements taken from ChEMBL document CHEMBL3745675, “Design and optimization of selective azaindole amide M1 positive allosteric modulators” (Bioorg Med Chem Lett, 2016).

Key:
Plasma [1] = assay: Fraction unbound in Wistar Hann rat plasma at 5 mg/kg, sc after 1 hr; assay type: ADME, organism-based; conditions: in vivo
Plasma [2] = assay: Fraction unbound in Wistar Hann rat plasma at 5 mg/kg, sc after 2 hrs; assay type: ADME, organism-based; conditions: in vivo
Plasma [3] = assay: Fraction unbound in Wistar Hann rat plasma at 5 mg/kg, sc after 4 hrs; assay type: ADME, organism-based; conditions: in vivo
Plasma [4] = assay: Fraction unbound in Wistar Hann rat plasma at 5 mg/kg, sc after 6 hrs; assay type: ADME, organism-based; conditions: in vivo
[5] = Ratio of drug level in brain to plasma in Wistar Hann rat at 5 mg/kg, sc after 1 hr; assay type: ADME, organism-based
[6] = Ratio of drug level in brain to plasma in Wistar Hann rat at 5 mg/kg, sc after 2 hrs; assay type: ADME, organism-based
[7] = Ratio of drug level in brain to plasma in Wistar Hann rat at 5 mg/kg, sc after 4 hrs; assay type: ADME, organism-based
[8] = Ratio of drug level in brain to plasma in Wistar Hann rat at 5 mg/kg, sc after 6 hrs; assay type: ADME, organism-based
[9] = Ratio of unbound AUC in brain to plasma in Wistar Hann rat at 5 mg/kg, sc after 1 hr; assay type: ADME, organism-based; conditions: read-out: Ratio AUC
[10] = Ratio of unbound AUC in brain to plasma in Wistar Hann rat at 5 mg/kg, sc after 2 hrs; assay type: ADME, organism-based; conditions: brain and plasma, read-out: Ratio AUC
[11] = Ratio of unbound AUC in brain to plasma in Wistar Hann rat at 5 mg/kg, sc after 4 hrs; assay type: ADME, organism-based; conditions: brain and plasma, read-out: Ratio AUC
[12] = Ratio of unbound AUC in brain to plasma in Wistar Hann rat at 5 mg/kg, sc after 6 hrs; assay type: ADME, organism-based; conditions: brain and plasma, read-out: Ratio AUC
[13] = Drug concentration in Wistar Hann rat CSF at 5 mg/kg, sc after 1 hr; assay type: ADME, organism-based, Cerebrospinal fluid; conditions: read-out: Drug uptake
[14] = Drug concentration in Wistar Hann rat CSF at 5 mg/kg, sc after 2 hrs; assay type: ADME, organism-based, Cerebrospinal fluid; conditions: read-out: Drug uptake
[15] = Drug concentration in Wistar Hann rat CSF at 5 mg/kg, sc after 4 hrs; assay type: ADME, organism-based, Cerebrospinal fluid; conditions: read-out: Drug uptake
[16] = Drug concentration in Wistar Hann rat CSF at 5 mg/kg, sc after 6 hrs; assay type: ADME, organism-based, Cerebrospinal fluid; conditions: read-out: Drug uptake
[17] = Ratio of drug level in CSF to plasma in Wistar Hann rat at 5 mg/kg, sc after 1 hr; assay type: ADME, organism-based; conditions: CSF and plasma
[18] = Ratio of drug level in CSF to plasma in Wistar Hann rat at 5 mg/kg, sc after 2 hrs; assay type: ADME, organism-based; conditions: CSF and plasma
[19] = Ratio of drug level in CSF to plasma in Wistar Hann rat at 5 mg/kg, sc after 4 hrs; assay type: ADME, organism-based; conditions: CSF and plasma
[20] = Ratio of drug level in CSF to plasma in Wistar Hann rat at 5 mg/kg, sc after 6 hrs; assay type: ADME, organism-based; conditions: CSF and plasma
[21] = Ratio of unbound AUC in CSF to plasma in Wistar Hann rat at 5 mg/kg, sc after 1 hr; assay type: ADME, organism-based; conditions: CSF and plasma, read-out: Ratio AUC
[22] = Ratio of unbound AUC in CSF to plasma in Wistar Hann rat at 5 mg/kg, sc after 2 hrs; assay type: ADME, organism-based; conditions: CSF and plasma, read-out: Ratio AUC
[23] = Ratio of unbound AUC in CSF to plasma in Wistar Hann rat at 5 mg/kg, sc after 4 hrs; assay type: ADME, organism-based; conditions: CSF and plasma, read-out: Ratio AUC
[24] = Ratio of unbound AUC in CSF to plasma in Wistar Hann rat at 5 mg/kg, sc after 6 hrs; assay type: ADME, organism-based; conditions: CSF and plasma, read-out: Ratio AUC
[25] = Cmax in Wistar Hann rat plasma at 5 mg/kg, sc; assay type: ADME, organism-based; set-up: dose 5 mg/kg, route subcutaneous
[26] = Cmax in Wistar Hann rat brain at 5 mg/kg, sc; assay type: ADME, organism-based; set-up: dose 5 mg/kg, route subcutaneous
[27] = Cmax in Wistar Hann rat CSF at 5 mg/kg, sc; assay type: ADME, organism-based, Cerebrospinal fluid; set-up: dose 5 mg/kg, route subcutaneous
[28] = Tmax in Wistar Hann rat plasma at 5 mg/kg, sc; assay type: ADME, organism-based
[29] = Tmax in Wistar Hann rat brain at 5 mg/kg, sc; assay type: ADME, organism-based
[30] = Tmax in Wistar Hann rat CSF at 5 mg/kg, sc; assay type: ADME, organism-based, Cerebrospinal fluid
[31] = AUC (0 to tlast) in Wistar Hann rat plasma at 5 mg/kg, sc; assay type: ADME, organism-based
[32] = AUC (0 to tlast) in Wistar Hann rat brain at 5 mg/kg, sc; assay type: ADME, organism-based
[33] = AUC (0 to tlast) in Wistar Hann rat CSF at 5 mg/kg, sc; assay type: ADME, organism-based, Cerebrospinal fluid
[34] = AUC (0 to infinity) in Wistar Hann rat plasma at 5 mg/kg, sc; assay type: ADME, organism-based; set-up: dose 5 mg/kg, time infinity, route subcutaneous
[35] = AUC (0 to infinity) in Wistar Hann rat brain at 5 mg/kg, sc; assay type: ADME, organism-based; set-up: dose 5 mg/kg, route subcutaneous, time infinity
[36] = AUC (0 to infinity) in Wistar Hann rat CSF at 5 mg/kg, sc; assay type: ADME, organism-based, Cerebrospinal fluid; set-up: dose 5 mg/kg, time infinity, route subcutaneous

## Cn1ccc(-c2ccc(Cn3cc(C(=O)N[C@H]4CCOC[C@@H]4O)c4ncccc43)cc2)n1
Plasma [1]
  Cp(f): 463 nM
Plasma [2]
  Cp(f): 502 nM
Plasma [3]
  Cp(f): 293 nM
Plasma [4]
  Cp(f): 197.5 nM
[5]
  Kp at 1 h: 0.21
[6]
  Kp at 2 h: 0.18
[7]
  Kp at 4 h: 0.22
[8]
  Kp at 6 h: 0.19
[9]
  Kp uu at 1 h: 0.15
[10]
  Kp uu at 2 h: 0.13
[11]
  Kp uu at 4 h: 0.16
[12]
  Kp uu at 6 h: 0.14
[13]
  concentration at 1 h: 133 nM
[14]
  concentration at 2 h: 144 nM
[15]
  concentration at 4 h: 76.2 nM
[16]
  concentration at 6 h: 54.3 nM
[17]
  Kp at 1 h: 0.03
[18]
  Kp at 2 h: 0.03
[19]
  Kp at 4 h: 0.02
[20]
  Kp at 6 h: 0.02
[21]
  Kp uu at 1 h: 0.29
[22]
  Kp uu at 2 h: 0.29
[23]
  Kp uu at 4 h: 0.27
[24]
  Kp uu at 6 h: 0.27
[25]
  Cmax: 2360 ng/mL
[26]
  Cmax: 453 ng/mL
[27]
  Cmax: 62.2 ng/mL
[28]
  Tmax: 2 h
[29]
  Tmax: 1 h
[30]
  Tmax: 2 h
[31]
  AUC(0-t): 9400 ng·h/mL
[32]
  AUC(0-t): 1830 ng·h/mL
[33]
  AUC(0-t): 240 ng·h/mL
[34]
  AUC(0-inf): 13400 ng·h/mL
[35]
  AUC(0-inf): 2680 ng·h/mL
[36]
  AUC(0-inf): 380 ng·h/mL
